Source: patent US8012963B2, “3,4-dihydro-2H-benzo[1,4]oxazine and thiazine derivatives as CETP inhibitors” (Janssen Pharmaceutica N.V., priority 2006, dated 2011)
Values joined by “and” are separate entries in the source; they are usually repeats but may differ in a detail not shown here. Identical values can stand only once.

Target: T1, CETP (Homo sapiens, UniProt P11597)
T1 construct: from tissue; host or cells: human plasma from normal volunteers
T1 sequence (P11597 18-493): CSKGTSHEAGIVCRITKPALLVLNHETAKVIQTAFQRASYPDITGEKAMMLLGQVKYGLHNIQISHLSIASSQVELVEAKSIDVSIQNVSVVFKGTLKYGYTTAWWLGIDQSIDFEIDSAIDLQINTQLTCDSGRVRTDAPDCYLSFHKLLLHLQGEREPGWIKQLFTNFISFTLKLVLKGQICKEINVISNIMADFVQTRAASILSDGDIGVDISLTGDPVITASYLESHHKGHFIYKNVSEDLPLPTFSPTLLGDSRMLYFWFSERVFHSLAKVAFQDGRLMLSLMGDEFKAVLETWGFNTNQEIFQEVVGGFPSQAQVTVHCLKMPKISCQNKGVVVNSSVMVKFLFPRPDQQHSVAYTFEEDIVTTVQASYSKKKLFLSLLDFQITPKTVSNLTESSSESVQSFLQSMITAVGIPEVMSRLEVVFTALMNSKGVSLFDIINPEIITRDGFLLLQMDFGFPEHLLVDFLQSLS
Experiment: CETP in vitro assay ([3H]CE-HDL transfer, Amersham kit TRKQ7005; modified protocol in human plasma)
Assay type: biochemical
Settings: multiple values = multiple measurements; for inhibition at 1 µM / % Inhibition @ 1 μM: 1 μM compound
Procedure: The CETP inhibitory activity of the compounds was determined using a commercially available kit from Amersham Biosciences (Catalog #TRKQ7005).
For the measurement of inhibitory activity in human plasma, a modified protocol (Connolly, D. T. et al., Biochemistry, 39 13870-13879, 2000) was used. Briefly, 80 μl of human plasma (obtained from normal volunteers), approximately 25 μg/ml (200) of [^3H]CE-HDL (Amersham Biosciences from kit TRKQ7005) and 1 μl of compound dissolved in DMSO was incubated for at least 4 hrs at 37° C. and non-specific transfer was determined by incubating a corresponding plate at 4° C. (blank). After the incubation period, 100 of a solution of 1% Dextralip 50/0.5M MgCl2, pH 7.4 was added, vortexed and incubated at room temperature for 10 min. The plate was then centrifuged for 30 min at 10° C. at 3000 rpm in a Sorvall RT6000B centrifuge. Fifty microliters of the supernatant was transferred to a Picoplate (Packard) containing 100 μl of Microscint 40 (Perkin Elmer) and mixed for 30 min using a plate mixer. The radioactivity was counted using a TopCount (Perkin Elmer) and the % control was determined in the samples using the following formula: % transfer relative to vehicle controls (% control)=[cpm blank-cpm test]/cpm blank/cpm control]×100. IC50s were calculated from plots of the % control versus compound concentration.
A variety of example compounds have been made and tested, with a range of in vitro results. Below, in Table 2, are representative compounds and the corresponding data; in some cases, where multiple IC50's are shown, multiple measurements were taken. Naturally, different compounds in Formula (I), (Ia), (Ib) and (Ic) may have not activities identical to any one compound below.

SMILES | inhibition at 1 µM | % Inhibition @ 1 μM | IC50
OCCCN1c2cccc(-c3cccc(OC(F)(F)F)c3)c2OCC1c1cccc(OC(F)(F)C(F)F)c1 (stereo not shown) [Compound 26, 3-[3-[3-(1,1,2,2-Tetrafluoro-ethoxy)-phenyl]-8-(3-trifluoromethoxy-phenyl)-2,3-dihydro-benzo[1,4]oxazin-4-yl]-propan-1-ol] | 10% |  | 
OC(CN1c2cccc(-c3cccc(OC(F)(F)F)c3)c2OCC1c1cccs1)C(F)(F)F (stereo not shown) [Compound 104, 1,1,1-Trifluoro-3-[3-thiophen-2-yl-8-(3-trifluoromethoxy-phenyl)-2,3-dihydro-benzo[1,4]oxazin-4-yl]-propan-2-ol] |  | 0% | 
COCCCC1COc2c(-c3cccc(OC(F)(F)F)c3)cccc2N1CC(O)C(F)(F)F (stereo not shown) [Compound 55] | 0% |  | 
CCCN1c2cccc(-c3cccc(OC(F)(F)F)c3)c2OCC1c1cccc(OC(F)(F)C(F)F)c1 (stereo not shown) [Compound 34, 4-Propyl-3-[3-(1,1,2,2-tetrafluoro-ethoxy)-phenyl]-8-(3-trifluoromethoxy-phenyl)-3,4-dihydro-2H-benzo[1,4]oxazine] | 38% | 39% | 0.19 µM
OC(CN1c2cccc(-c3cccc(OC(F)(F)F)c3)c2OCC1c1cccc(OC(F)(F)C(F)F)c1)C(F)(F)F (single isomer, unassigned) [Compound 1, 1,1,1-Trifluoro-3-[3-[3-(1,1,2,2-tetrafluoro-ethoxy)-phenyl]-8-(3-trifluoromethoxy-phenyl)-2,3-dihydro-benzo[1,4]oxazin-4-yl]-propan-2-ol] |  | 96% | 0.052 µM and 0.038 µM
OC(CN1c2cccc(-c3cccc(OC(F)(F)F)c3)c2OCC1c1cccc(SC(F)(F)F)c1)C(F)(F)F (stereo not shown) [Compound 16, 1,1,1-Trifluoro-3-[8-(3-trifluoromethoxy-phenyl)-3-(3-trifluoromethylsulfanyl-phenyl)-2,3-dihydro-benzo[1,4]oxazin-4-yl]-propan-2-ol] |  | 20% | 
Cc1ccsc1C1COc2c(-c3cccc(OC(F)(F)F)c3)cccc2N1CC(O)C(F)(F)F (stereo not shown) [Compound 86, 1,1,1-Trifluoro-3-[3-(3-methyl-thiophen-2-yl)-8-(3-trifluoromethoxy-phenyl)-2,3-dihydro-benzo[1,4]oxazin-4-yl]-propan-2-ol] |  | 2% | 
CCc1ccsc1C1COc2c(-c3cccc(OC(F)(F)F)c3)cccc2N1CC(O)C(F)(F)F (stereo not shown) [Compound 87, 3-[3-(3-Ethyl-thiophen-2-yl)-8-(3-trifluoromethoxy-phenyl)-2,3-dihydro-benzo[1,4]oxazin-4-yl]-1,1,1-trifluoro-propan-2-ol] | 8% |  | 
OC(CN1c2cccc(-c3cccc(OC(F)(F)F)c3)c2OCC1c1ccc(OC(F)(F)C(F)F)cc1)C(F)(F)F (stereo not shown) [Compound 94, 1,1,1-Trifluoro-3-[3-[4-(1,1,2,2-tetrafluoro-ethoxy)-phenyl]-8-(3-trifluoromethoxy-phenyl)-2,3-dihydro-benzo[1,4]oxazin-4-yl]propan-2-ol] |  | 11% | 
OC(CN1c2cccc(-c3cccc(OC(F)(F)F)c3)c2OCC1c1ccc(OC(F)(F)C(F)F)cc1)C(F)(F)F (stereo not shown) [Compound 93, 1,1,1-Trifluoro-3-[3-[4-(1,1,2,2-tetrafluoro-ethoxy)-phenyl]-8-(3-trifluoromethoxy-phenyl)-2,3-dihydro-benzo[1,4]oxazin-4-yl]propan-2-ol] |  | 33% | 
OC(CF)CN1c2cccc(-c3cccc(OC(F)(F)F)c3)c2OCC1c1cccc(OC(F)(F)C(F)F)c1 (stereo not shown) [Compound 68, 1-Fluoro-3-[3-[3-(1,1,2,2-tetrafluoro-ethoxy)-phenyl]-8-(3-trifluoromethoxy-phenyl)-2,3-dihydro-benzo[1,4]oxazin-4-yl]-propan-2-ol] |  | 79% and 91% | 0.127 µM
CCc1ccc(C2COc3c(-c4cccc(OC(F)(F)F)c4)cccc3N2CC(O)C(F)(F)F)s1 (stereo not shown) [Compound 59, 3-[3-(5-Ethyl-thiophen-2-yl)-8-(3-trifluoromethoxy-phenyl)-2,3-dihydro-benzo[1,4]oxazin-4-yl]-1,1,1-trifluoro-propan-2-ol] |  | 0% | 
OC(CN1c2cccc(-c3cccc(OC(F)(F)F)c3)c2OCC1c1ccccc1)C(F)(F)F (stereo not shown) [Compound 96, 1,1,1-Trifluoro-3-[3-phenyl-8-(3-trifluoromethoxy-phenyl)-2,3-dihydro-benzo[1,4]oxazin-4-yl]-propan-2-ol] |  | 1% | 
CC(C)(C)C(=O)CC1COc2c(-c3cccc(OC(F)(F)F)c3)cccc2N1CC(O)C(F)(F)F (stereo not shown) [Compound 57, 3,3-Dimethyl-1-[4-(3,3,3-trifluoro-2-hydroxy-propyl)-8-(3-trifluoromethoxy-phenyl)-3,4-dihydro-2H-benzo[1,4]oxazin-3-yl]-butan-2-one] |  | 0% | 
OC(CN1c2cccc(-c3cccc(OC(F)(F)F)c3)c2OCC1c1ccc(OC(F)(F)F)cc1)C(F)(F)F (stereo not shown) [Compound 98, 1,1,1-Trifluoro-3-[3-(4-trifluoromethoxy-phenyl)-8-(3-trifluoromethoxy-phenyl)-2,3-dihydro-benzo[1,4]oxazin-4-yl]-propan-2-ol] |  | 10% | 
COC(=O)N(C)CCN1c2cccc(-c3cccc(OC(F)(F)F)c3)c2OCC1c1cccc(OC(F)(F)C(F)F)c1 (stereo not shown) [Compound 42, Methyl-{2-[3-[3-(1,1,2,2-tetrafluoro-ethoxy)-phenyl]-8-(3-trifluoromethoxy-phenyl)-2,3-dihydro-benzo[1,4]oxazin-4-yl]-ethyl}-carbamic acid methyl ester] | 8% |  | 
OC(CN1c2cccc(-c3cccc(OC(F)(F)F)c3)c2OCC1c1cccc(Cl)c1)C(F)(F)F (stereo not shown) [Compound 101, 3-[3-(3-Chloro-phenyl)-8-(3-trifluoromethoxy-phenyl)-2,3-dihydro-benzo[1,4]oxazin-4-yl]-1,1,1-trifluoro-propan-2-ol] |  | 61% and 63% | 0.214 µM
Cc1ccsc1C1COc2c(-c3cccc(OC(F)(F)F)c3)cccc2N1CC(O)C(F)(F)F (stereo not shown) [Compound 85, 1,1,1-Trifluoro-3-[3-(3-methyl-thiophen-2-yl)-8-(3-trifluoromethoxy-phenyl)-2,3-dihydro-benzo[1,4]oxazin-4-yl]-propan-2-ol] |  | 20% | 
OC(CN1c2cccc(-c3cc(F)cc(F)c3)c2OCC1c1cccc(OC(F)(F)C(F)F)c1)C(F)(F)F (single isomer, unassigned) [Compound 64, 3-{8-(3,5-Difluoro-phenyl)-3-[3-(1,1,2,2-tetrafluoro-ethoxy)-phenyl]-2,3-dihydro-benzo[1,4]oxazin-4-yl}-1,1,1-trifluoro-propan-2-ol] |  | 121% and 101% and 119% | 0.1 µM and 0.117 µM
CN1c2cccc(-c3cccc(OC(F)(F)F)c3)c2OCC1c1cccc(OC(F)(F)C(F)F)c1 (stereo not shown) [Compound 32, 4-Methyl-3-[3-(1,1,2,2-tetrafluoro-ethoxy)-phenyl]-8-(3-trifluoromethoxy-phenyl)-3,4-dihydro-2H-benzo[1,4]oxazine] | 0% |  | 
NCCN1c2cccc(-c3cccc(OC(F)(F)F)c3)c2OCC1c1cccc(OC(F)(F)C(F)F)c1 (stereo not shown) [Compound 39, 2-[3-[3-(1,1,2,2-Tetrafluoro-ethoxy)-phenyl]-8-(3-trifluoromethoxy-phenyl)-2,3-dihydro-benzo[1,4]oxazin-4-yl]-ethylamine] | 2% |  | 
OC(CN1c2cccc(-c3cccc(OC(F)(F)F)c3)c2OCC1c1ccoc1)C(F)(F)F (stereo not shown) [Compound 105, 1,1,1-Trifluoro-3-[3-furan-3-yl-8-(3-trifluoromethoxy-phenyl)-2,3-dihydro-benzo[1,4]oxazin-4-yl]-propan-2-ol] |  | 2% | 
O[C@@H](CN1c2cccc(-c3cccc(OC(F)(F)F)c3)c2SC[C@H]1c1cccc(OC(F)(F)C(F)F)c1)C(F)(F)F [Compound 108] | 34% | 39% | > 2.92 µM
